In paper PMC6115404 (2018):

Tested on: bcl2Mid (DNA, G4) GGGCGCGGGAGGAATTGGGCGGG
Test: native PAGE
Conditions: K+ (25 mM K-phosphate, 70 mM KCl); samples pH 7.0; gel in TBE pH 8.0; higher-order assemblies at all equivalents

In the case of `NCCNCCN.NCCNCCN.NCCNCCN.[Pt+2].[Pt+2].[Pt+2].c1cc(-c2ccc(N(c3ccc(-c4ccncc4)cc3)c3ccc(-c4ccncc4)cc3)cc2)ccn1`, the binding is reported as “yes”.
